Experimental data reported in patent publication US20070270418A1, “Inhibitors of P38 and Methods of Using the Same” (priority 2003, published 2007).
Read-outs that look alike come from different tables or passages of the source.

Experiments:
[1] = tested on: TNFα release from THP-1 cells; test: TNFα release from LPS-stimulated THP-1 cells; assay type: cell-based; conditions: LPS 10 μg/ml, 18 hours, read-out: TNFα (THP-1) IC50
Method in brief: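 THP-1 cells (10^6 cells/ml on resuspension) preincubated with compound 30 min at 37°C, 5% CO2, final DMSO ≤0.5%, then stimulated with 10 μg/ml LPS for 18 h (TNFα). Supernatants collected for TNFα analysis.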

p38α = molecular target: T1, p38α (Homo sapiens, UniProt Q16539); test: p38 MAP Kinase assay, ATF2 phosphorylation (ELISA); assay type: biochemical; conditions: 40 μM ATP
T1 construct: p38 MAP Kinases are recombinant human full-length proteins with an amino-terminal GST fusion; GST (N); purchased Upstate (Charlottesville, Va.); host or cells: E. coli
Method in brief: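 Recombinant full-length GST-tagged human p38α (6 ng) pre-incubated 15 min at room temperature with compound, then reacted 30 min at 37° C with 40 μM ATP and 1.25 μM GST-ATF2 (aa 19-96) in HEPES pH 7.5/MgCl2 buffer. EDTA stop; ATF2 Thr69 phosphorylation measured by anti-phospho-ATF2 ELISA at 450 nm.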

T1 sequence (Q16539 whole entry, the tested form may be a part): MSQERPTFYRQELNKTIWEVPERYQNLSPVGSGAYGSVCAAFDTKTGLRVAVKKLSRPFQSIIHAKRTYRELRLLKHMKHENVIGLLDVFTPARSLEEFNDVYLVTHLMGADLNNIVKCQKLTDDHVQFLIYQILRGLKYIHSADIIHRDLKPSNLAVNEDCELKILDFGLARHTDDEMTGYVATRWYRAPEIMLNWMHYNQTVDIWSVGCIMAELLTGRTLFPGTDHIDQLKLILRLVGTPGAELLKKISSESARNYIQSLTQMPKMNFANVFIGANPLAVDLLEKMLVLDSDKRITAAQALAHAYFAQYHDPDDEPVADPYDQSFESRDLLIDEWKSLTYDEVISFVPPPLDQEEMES

Structure (SMILES)	IC50 ([1]; Homo sapiens, THP-1, 18 h)	IC50 (p38α)	IC50 [1]
OC(CNc1nccc(-c2c(-c3ccc(F)cc3)nc3occn23)n1)c1ccccc1 (stereo not shown) [LVII]	58.5 nM	8.96 nM	–
Fc1ccc(-c2nc3occn3c2-c2ccnc(NCCCn3ccnc3)n2)cc1 [LVI]	96.9 nM	14 nM	–
OCCCCCCNc1nccc(-c2c(-c3ccc(F)cc3)nc3occn23)n1 [LV]	25 nM	23.1 nM	–
C[C@H](Nc1nccc(-c2c(-c3ccc(F)cc3)nc3occn23)n1)[C@H](O)c1ccccc1 [LXIII]	87.4 nM	38.5 nM	–
O=C1OCC[C@H]1Nc1nccc(-c2c(-c3ccc(F)cc3)nc3occn23)n1 [LXII]	258 nM	453 nM	–
CC[C@H](C)[C@@H](CO)Nc1nccc(-c2c(-c3ccc(F)cc3)nc3occn23)n1 [LXIV]	13.2 nM	174 nM	–
O[C@H]1CCCC[C@@H]1Nc1nccc(-c2c(-c3ccc(F)cc3)nc3occn23)n1 [LXIX]	11.4 nM	83.3 nM	–
C[C@@H](Nc1nccc(-c2c(-c3ccc(F)cc3)nc3occn23)n1)[C@@H](O)c1ccccc1 [LXVIII]	140 nM	79.1 nM	–
O=C1CCCN1CCCNc1nccc(-c2c(-c3ccc(F)cc3)nc3occn23)n1 [LXVII]	177 nM	33.4 nM	–
Fc1ccc(-c2nc3occn3c2-c2ccnc(NCCN3CCOCC3)n2)cc1 [LXVI]	193 nM	75.9 nM	–
CCCC[C@@H](CO)Nc1nccc(-c2c(-c3ccc(F)cc3)nc3occn23)n1 [LXV]	26.3 nM	86.6 nM	–
Fc1ccc(-c2nc3occn3c2-c2ccnc(NCc3ccncc3)n2)cc1 [LXXIII]	96.6 nM	234 nM	–
COc1ccc(CNc2nccc(-c3c(-c4ccc(F)cc4)nc4occn34)n2)cc1OC [LXXIV]	519 nM	72.8 nM	–
COc1cccc(CNc2nccc(-c3c(-c4ccc(F)cc4)nc4occn34)n2)c1OC [LXXIX]	58.4 nM	342 nM	–
OCCN(CCO)CCNc1nccc(-c2c(-c3ccc(F)cc3)nc3occn23)n1 [LXXVIII]	318 nM	370 nM	–
C[C@@H](Nc1nccc(-c2c(-c3ccc(F)cc3)nc3occn23)n1)[C@@H](O)c1ccc(O)cc1 [LXXVI]	41.2 nM	6.72 nM	–
Oc1cccc(C(O)CNc2nccc(-c3c(-c4ccc(F)cc4)nc4occn34)n2)c1 (stereo not shown) [LXXV]	26.6 nM	5.09 nM	–
OC[C@@H](Nc1nccc(-c2c(-c3ccc(F)cc3)nc3occn23)n1)[C@H](O)c1ccccc1 [LXXXIII]	346 nM	185 nM	–
CC(CO)(CO)Nc1nccc(-c2c(-c3ccc(F)cc3)nc3occn23)n1 [LXXXII]	50.5 nM	184 nM	–
NCCNc1nccc(-c2c(-c3ccc(F)cc3)nc3occn23)n1 [LXXXIX]	599 nM	253 nM	–
CS(=O)(=O)c1ccc(CNc2nccc(-c3c(-c4ccc(F)cc4)nc4occn34)n2)cc1 [LXXXI]	1230 nM	1230 nM	–
Fc1ccc(-c2nc3occn3c2-c2ccnc(NCC3CCCNC3)n2)cc1 (stereo not shown) [LXXXVIII]	87 nM	39.9 nM	–
OCC(CO)(CO)Nc1nccc(-c2c(-c3ccc(F)cc3)nc3occn23)n1 [LXXXVI]	150 nM	227 nM	–
Fc1ccc(-c2nc3occn3c2-c2ccnc(NCc3cccnc3)n2)cc1 [LXXXV]	39.3 nM	66.3 nM	–

Structure (SMILES)	IC50 ([1]; Homo sapiens, THP-1, 18 h)	IC50 (p38α)	IC50 [1]
Oc1ccc(C(O)CNc2nccc(-c3c(-c4ccc(F)cc4)nc4occn34)n2)cc1 (stereo not shown) [LXXX]	88.4 nM	82.5 nM	–
CCOC(=O)N1CCC(Nc2nccc(-c3c(-c4ccc(F)cc4)nc4occn34)n2)CC1 [LXX]	12.2 nM	3.33 nM	–
CCCCC(CO)Nc1nccc(-c2c(-c3ccc(F)cc3)nc3occn23)n1 (stereo not shown) [LX]	69.7 nM	20.5 nM	–
CC(C)C[C@H](CO)Nc1nccc(-c2c(-c3ccc(F)cc3)nc3occn23)n1 [L]	125 nM	86.6 nM	–
OCCN(CCO)c1nccc(-c2c(-c3ccc(F)cc3)nc3occn23)n1 [XCIII]	457 nM	120 nM	–
Fc1ccc(CNc2nccc(-c3c(-c4ccc(F)cc4)nc4occn34)n2)cc1 [XCIV]	394 nM	90.9 nM	–
Fc1ccc(-c2nc3occn3c2-c2ccnc(N3CCOCC3)n2)cc1 [XCIX]	854 nM	71.1 nM	–
NCCCNc1nccc(-c2c(-c3ccc(F)cc3)nc3occn23)n1 [XCI]	188 nM	49.9 nM	–
OC1CCN(c2nccc(-c3c(-c4ccc(F)cc4)nc4occn34)n2)CC1 [XCVIII]	951 nM	134 nM	–
COCCCNc1nccc(-c2c(-c3ccc(F)cc3)nc3occn23)n1 [XCVII]	12.1 nM	1.41 nM	–
CCNc1nccc(-c2c(-c3ccc(F)cc3)nc3occn23)n1 [XCV]	18 nM	3.42 nM	–
CC(C)[C@@H](CO)Nc1nccc(-c2c(-c3ccc(F)cc3)nc3occn23)n1 [XII]	11.8 nM	16.7 nM	–
OCCNc1nccc(-c2c(-c3ccc(F)cc3)nc3occn23)n1 [XIV]	338 nM	41.6 nM	–
N#CCCNc1nccc(-c2c(-c3ccc(F)cc3)nc3occn23)n1 [XIX]	1140 nM	100 nM	–
CCOCCCNc1nccc(-c2c(-c3ccc(F)cc3)nc3occn23)n1 [XLIII]	13.5 nM	1.56 nM	–
Fc1ccc(-c2nc3occn3c2-c2ccnc(NC[C@@H]3CCCO3)n2)cc1 [XLII]	11.2 nM	80.8 nM	–
CCSCCNc1nccc(-c2c(-c3ccc(F)cc3)nc3occn23)n1 [XLIV]	34.5 nM	10.5 nM	–
Fc1ccc(-c2nc3occn3c2-c2ccnc(NCc3cccs3)n2)cc1 [XLIX]	20 nM	5.87 nM	–
CC(CO)Nc1nccc(-c2c(-c3ccc(F)cc3)nc3occn23)n1 (stereo not shown) [XLI]	–	1.75 nM	49.2 nM
Fc1ccc(-c2nc3occn3c2-c2ccnc(NCc3ccccn3)n2)cc1 [XLVIII]	96.8 nM	74 nM	–
C[C@@H](CO)CCNc1nccc(-c2c(-c3ccc(F)cc3)nc3occn23)n1 [XLVII]	13.7 nM	31.4 nM	–
OCCCCCNc1nccc(-c2c(-c3ccc(F)cc3)nc3occn23)n1 [XLVI]	17.2 nM	23.1 nM	–
Fc1ccc(-c2nc3occn3c2-c2ccnc(NC[C@H]3CCCO3)n2)cc1 [XLV]	11.2 nM	11.7 nM	–
OCCOCCNc1nccc(-c2c(-c3ccc(F)cc3)nc3occn23)n1 [XL]	93 nM	79 nM	–

Structure (SMILES)	IC50 ([1]; Homo sapiens, THP-1, 18 h)	IC50 (p38α)	IC50 [1]
Fc1ccc(-c2nc3occn3c2-c2ccnc(NC3CC3)n2)cc1 [XVIII]	11.2 nM	0.44 nM	–
CCC(O)CNc1nccc(-c2c(-c3ccc(F)cc3)nc3occn23)n1 (stereo not shown) [XVII]	15.9 nM	15.7 nM	–
CC(O)CNc1nccc(-c2c(-c3ccc(F)cc3)nc3occn23)n1 (stereo not shown) [XVI]	–	37.1 nM	19.3 nM
CC(O)CNc1nccc(-c2c(-c3ccc(F)cc3)nc3occn23)n1 (stereo not shown) [XV]	18.8 nM	30.7 nM	–
C=CCNc1nccc(-c2c(-c3ccc(F)cc3)nc3occn23)n1 [XXIII]	9.08 nM	11.9 nM	–
CC[C@@H](CO)Nc1nccc(-c2c(-c3ccc(F)cc3)nc3occn23)n1 [XXII]	18.6 nM	3.7 nM	–
Fc1ccc(-c2nc3occn3c2-c2ccnc(NC3CCC3)n2)cc1 [XXIV]	1.78 nM	15 nM	–
Fc1ccc(-c2nc3occn3c2-c2ccnc(NCC3CC3)n2)cc1 [XXIX]	4.45 nM	4.28 nM	–
C[C@H](O)CNc1nccc(-c2c(-c3ccc(F)cc3)nc3occn23)n1 [XXI]	13.9 nM	6.86 nM	–
CCCNc1nccc(-c2c(-c3ccc(F)cc3)nc3occn23)n1 [XXVIII]	15.3 nM	3.47 nM	–
CC[C@H](CO)Nc1nccc(-c2c(-c3ccc(F)cc3)nc3occn23)n1 [XXVII]	6.08 nM	20.5 nM	–
CN(C)CCNc1nccc(-c2c(-c3ccc(F)cc3)nc3occn23)n1 [XXVI]	100 nM	480 nM	–
OCCCNc1nccc(-c2c(-c3ccc(F)cc3)nc3occn23)n1 [XXV]	466 nM	21.5 nM	–
OCC(O)CNc1nccc(-c2c(-c3ccc(F)cc3)nc3occn23)n1 (stereo not shown) [XXXIII]	57 nM	143 nM	–
COC[C@H](C)Nc1nccc(-c2c(-c3ccc(F)cc3)nc3occn23)n1 [XXXII]	4.89 nM	19 nM	–
CCCC(CO)Nc1nccc(-c2c(-c3ccc(F)cc3)nc3occn23)n1 (stereo not shown) [XXXIV]	19.7 nM	2.19 nM	–
COCC(C)Nc1nccc(-c2c(-c3ccc(F)cc3)nc3occn23)n1 (stereo not shown) [XXXI]	10.3 nM	1.6 nM	–
CN(C)CCCNc1nccc(-c2c(-c3ccc(F)cc3)nc3occn23)n1 [XXXVIII]	168 nM	343 nM	–
Fc1ccc(-c2nc3occn3c2-c2ccnc(NCc3ccco3)n2)cc1 [XXXVII]	21.5 nM	5.95 nM	–
Cc1ccc(CNc2nccc(-c3c(-c4ccc(F)cc4)nc4occn34)n2)o1 [XXXVI]	76.6 nM	103 nM	–
CC(CO)CCNc1nccc(-c2c(-c3ccc(F)cc3)nc3occn23)n1 (stereo not shown) [XXXV]	17.9 nM	17.9 nM	–
CC(CO)Nc1nccc(-c2c(-c3ccc(F)cc3)nc3occn23)n1 (stereo not shown) [XXX]	–	34.8 nM	12.3 nM
COCCNc1nccc(-c2c(-c3ccc(F)cc3)nc3occn23)n1 [XX]	65 nM	24.3 nM	–
